Test results reported in patent US20040039062A1, “Urea, ruminally synthesizable mainly to microbial crude protein” (Agri-Nutrients Technology Group, Inc., priority 2002, published 2004).

What was measured:
[1] = test system: Fresh rumen fluid; assay: In-vitro urea conversion test: ruminal synthesis of urea to microbial crude protein (MCP) in rumen fluid; set-up: species or system heifer
Protocol: A series of urea conversion in-vitro tests were arranged using the following materials: (1) Fresh rumen fluid withdrawn via a pump through a strainer from a heifer receiving no feed for the prior two days. (2) Simulated Saliva composition of E. I. McGougal in Biochemical Journal, Vol. 43, page 106. (3) Cellulose energy source, Whatman Chromedia Microgranular Cellulose, free from other nutrient compounds. […] The in-vitro tests were run with each sample in a 250 ml Erlenmeyer flask receiving the ingredients listed as follows: [table] The test flasks were placed in a constant temperature bath operating at 39° C. Carbon dioxide was used to displace the air in the flasks. Samples amounting to 10 grams were withdrawn on an accurate time schedule with the air in the sample container replaced by carbon dioxide. The samples were immediately treated with 1 percent mercuric chloride to terminate microbial activity in the samples. The samples were analyzed for total nitrogen, ammonia nitrogen, and […] by difference.

[2] = Water solubility test of coated urea (5 gram sample in 200 grams distilled water at 39° C., urea dissolved after 10 hours); format: physicochemical
Protocol: The mixture was swirled briefly only when the sample was added and at the end of 10 hours. The percent of the urea dissolved in 10 hours was measured to be 45 by weight.

urea water solubilities at 39° C. (in words) [2]: high
SMILES: NC(N)=O [Test No. 6, urea]
synthesis efficiencies to MCP (in words) ([1]; after 8 hours): low
Urea Synthesized to MCP ([1]; rumen fluid, 8 hours): 3.6%
